Test results from ChEMBL document CHEMBL5385900, “New insights in the development of positive allosteric modulators of α-amino-3-hydroxy-5-methyl-4-isoxazolepropionic acid (AMPA) receptors belonging to 3,4-dihydro-2H-1,2,4-benzothiadiazine 1,1-dioxides: Introduction of (mono/difluoro)methyl groups at the 2-position of the thiadiazine ring” (Eur J Med Chem, 2023).
Activity calls are given as the source filed them. The rule behind the calls is not given here.

Assays:
[1] = biological target: T1, Glutamate receptor ionotropic, AMPA (Rattus norvegicus) (UniProt P19491+P19492+P19493+P19490); experiment: Positive allosteric modulation at AMPAR in rat primary cortical cells assessed as concentration required for 2 fold increase in AMPA induced current amplitude by FlipR assay; format: cell-based; conditions: Primary cortical neuron, filed as positive allosteric modulator
[2] = biological target: T1, Glutamate receptor ionotropic, AMPA (Rattus norvegicus); experiment: Positive allosteric modulation at AMPAR in rat hippocampal assessed as increase in AMPA induced noradrenaline release; parameters: concentration or dose not given beside the values
[3] = biological target: Glutamate receptor ionotropic AMPA (Homo sapiens, UniProt P42261+P42262+P42263+P48058); experiment: Positive allosteric modulation at AMPAR in HEK293 cells expressing GluA2Q assessed as glutamate induced calcium influx; format: cell-based
[4] = biological target: T1, Glutamate receptor ionotropic, AMPA (Rattus norvegicus); experiment: Positive allosteric modulation at AMPAR in rat primary cortical cells assessed as concentration required for 2 fold increase in AMPA induced current amplitude by FDSS fluorescence assay; format: cell-based; conditions: Primary cortical neuron, filed as positive allosteric modulator
[5] = tested on: Mus musculus; experiment: Cognition enhancing effect in CD1 mouse assessed as increase in exploration time for novel object at 3 mg/kg, po after 1 hr by object recognition test (reference value: 40%); format: functional
[6] = Toxicity in NMR1 mouse assessed as pro-convulsant effect at 30 mg/kg, po; format: organism-based; conditions: in vivo
[7] = tested on: Rattus norvegicus; experiment: Cognition enhancing effect in Wistar rat assessed as increase in long-term potentiation of synaptic response at 10 mg/kg, ip pretreated for 1 hr followed by tetanic stimulation and measured for 3 hrs; format: functional, organism-based; conditions: time 4.0 hrs
[8] = Toxicity in NMR1 mouse assessed as pro-convulsant effect at 100 mg/kg, po; format: organism-based; conditions: in vivo
[9] = tested on: Mus musculus; experiment: Cognition enhancing effect in C57BL/6 mouse assessed as increase in performance of spontaneous alteration at 0.1 mg/kg, ip after 1 hr by T-maze test; format: functional, organism-based
[10] = biological target: T1, Glutamate receptor ionotropic, AMPA (Rattus norvegicus); experiment: Positive allosteric modulation at AMPAR in rat hippocampal assessed as increase in AMPA induced noradrenaline release by measuring concentration required for 2 fold increase in noradrenaline release; conditions: filed as positive allosteric modulator
[11] = biological target: Glutamate receptor ionotropic AMPA (Homo sapiens) (UniProt P48058+P42263+P42262+P42261); experiment: Positive allosteric modulation at AMPAR in HEK293 cells expressing GluA2Q assessed as glutamate induced calcium influx relative to control; format: cell-based; conditions: filed as positive allosteric modulator
[12] = tested on: Mus musculus; experiment: Cognition enhancing effect in CD1 mouse assessed as increase in exploration time for novel object at 1 mg/kg, po after 1 hr by object recognition test (reference value: 40%); format: functional
[13] = tested on: Mus musculus; experiment: Cognition enhancing effect in C57BL/6 mouse assessed as increase in performance of spontaneous alteration at 0.3 mg/kg, ip after 1 hr by T-maze test; format: functional, organism-based
[14] = filed as positive allosteric modulator

SMILES | EC [1] | Activity [2, 14] | EC50 [3] | EC [4] | further results
O=S1(=O)NCN(C2CC2)c2ccc(F)cc21 | 0.2 µM | 230% | 0.275 µM | 0.3 µM | 
CC1N(C2CC2)c2ccc(Cl)cc2S(=O)(=O)N1C (centres undefined) | 65 µM |  | > 100 µM |  | Activity [2]: < 100%
CC1N(C)c2ccc(F)cc2S(=O)(=O)N1C (centres undefined) | 4.1 µM | 167% | 15.1 µM |  | 
O=S1(=O)c2cc(F)ccc2N(C2CC2)CN1CF | 0.6 µM | 427% | 0.282 µM |  | 
O=S1(=O)c2cc(Cl)ccc2N(C2CC2)CN1CF | 2.1 µM | 394% | 2.19 µM | 1.5 µM | Activity [5]: 78%; Activity [6]: Non-Toxic; Activity [7]: Active; Activity [8]: Non-Toxic; Activity [9]: Active; EC [10]: 5 µM; Emax [11]: 90%; Activity [12]: 64%
CC1N(C2CC2)c2ccc(F)cc2S(=O)(=O)N1C (centres undefined) | 70.9 µM |  | > 100 µM |  | Activity [2]: < 100%
O=S1(=O)c2cc(F)ccc2N(C2CC2)CN1C(F)F | 6.9 µM | 345% | 16.6 µM |  | 
O=S1(=O)c2cc(Cl)ccc2N(C2CC2)CN1C(F)F |  | 340% | > 100 µM | 6 µM | 
CCN1c2ccc(F)cc2S(=O)(=O)N(C)C1C (centres undefined) |  | 135% | 8.71 µM | 1.4 µM | 
CCN1C(C)N(C)c2ccc(Cl)cc2S1(=O)=O (centres undefined) |  |  | > 100 µM | 11.2 µM | Activity [2]: < 100%
CC1N(C2CC2)c2ccc(Cl)cc2S(=O)(=O)N1CF (centres undefined) | 2.5 µM | 329% | 2.14 µM |  | 
O=S1(=O)NCN(C2CC2)c2ccc(Cl)cc21 | 2.2 µM | 311% | 0.794 µM | 0.7 µM | Activity [5]: 79%; Activity [6]: Non-Toxic; Activity [7]: Active; Activity [13]: Active; EC [10]: 4.5 µM; Emax [11]: 100%; Activity [12]: 82%
CN1CN(C2CC2)c2ccc(Cl)cc2S1(=O)=O | 13.4 µM |  | > 100 µM |  | 
CCN1c2ccc(Cl)cc2S(=O)(=O)N(C)C1C (centres undefined) | 6.2 µM | 103% | 31.6 µM |  | 
CN1CN(C2CC2)c2ccc(F)cc2S1(=O)=O | 9.3 µM |  | 57.5 µM |  | Activity [2]: < 100%
CCN1c2ccc(Cl)cc2S(=O)(=O)N(CC)C1C (centres undefined) |  |  | > 100 µM | 12.2 µM | Activity [2]: < 100%
CC1N(C)c2ccc(Cl)cc2S(=O)(=O)N1C (centres undefined) | 4.3 µM | 112% | 81.3 µM | 0.8 µM | 
